Laboratory results as given in patent US11465987B2, “Compounds for treatment of cancer” (ONCTERNAL THERAPEUTICS, INC., priority 2012, dated 2022).
Read-outs that look alike come from different tables or passages of the source.

Tests used:
[1] = test system: PC-3 human prostate cancer cell line; test: cells; conditions: Homo sapiens
From the text: (§1) Cells were stained with SRB solution.

Bovine brain tubulin = test: In vitro tubulin polymerization assay (bovine brain tubulin); format: biochemical; conditions: 10 μM
Description: The spectrophotometer was maintained at 37° C. for tubulin polymerization.

[2] = test system: tubulin (colchicine, vinblastine and paclitaxel binding sites); test: MS competition binding assay; conditions: competitive mass binding assay
From the text: Each reaction was run in triplicate.

[3] = Rotarod test (in vivo neurotoxicity); design: species or system mouse; conditions: ICR mice, i.p. daily; 1h 5 or 15 mg/kg, vinblastine 0.5 mg/kg
Description: ICR mice received training three times a day for two days to enable them to stay on the rotating rod for >120 seconds at 12 rpm. Mice were then randomized by the length of time that they could stay on the rotating rod and divided into 7-8 mice per group. […] The rotarod test was performed twice a week. […] The rod speed was increased from […] to 40 rpm over a period of 5 min. Performance was measured as the length of time that a mouse could stay on the rotating rod.

PC-3 xenograft = test: In vivo PC-3 prostate tumor xenograft; conditions: for mice that lost more than 15% body weight: PC-3 xenograft, 15 mg/kg i.p.; for tumor volume at day 21: control 680 mm^3
[4] = test system: A375 human melanoma xenograft; test: In vivo A375 human melanoma xenograft; conditions: Melanoma (A375) xenograft, 15 mg/kg i.p.
[5] = Pharmacokinetic study in ICR mice; conditions: mice, 15 mg/kg i.v.
[6] = test system: NCI/ADR-RES (P-gp over-expressing resistant line of OVCAR-8); test: Cytotoxicity (SRB) assay, NCI/ADR-RES; format: cell-based, human; conditions: NCI/ADR-RES versus OVCAR-8
[7] = test system: melanoma and prostate cancer cell lines; test: Antiproliferative activity summarised over the cell line panel (range or average); format: cell-based; conditions: read-out: IC50 (range over tested cell lines)
PC-3 cells [8] = test: Apoptosis detection by ELISA (cytoplasmic DNA-histone complexes), PC-3; format: cell-based, human; conditions: PC-3 and A375 cells, 24 h
From the text: Quantification of the Enrichment of Mono- and oligonucleosomes in the cytoplasm was used to determine the ability of the compounds to induce apoptosis (cell death detection ELISA PLUS, Roche, Germany) following the manufacturer's instructions.

in vivo = conditions: male, ICR, mouse, plasma, iv, 15 mg/kg
[9] = test system: B16-F1 mouse melanoma cell line; test: Cytotoxicity (SRB) assay, B16-F1; format: cell-based; conditions: Mus musculus, B16-F1, SRB assay, mouse melanoma B16-F1; read-out: IC50 B16-F1
[10] = test system: A375 human melanoma cell line; test: Cytotoxicity (SRB) assay, A375; format: cell-based; conditions: Homo sapiens, A-375, SRB assay, human melanoma A375; read-out: IC50 A375
[11] = test system: DU 145 human prostate cancer cell line; test: Cytotoxicity (SRB) assay, DU 145; format: cell-based; conditions: Homo sapiens, DU-145, SRB assay, prostate cancer DU 145; read-out: IC50 DU 145
From the text: as §1

[12] = test system: LNCaP human prostate cancer cell line; test: Cytotoxicity (SRB) assay, LNCaP; format: cell-based; conditions: Homo sapiens, LNCaP, SRB assay, prostate cancer LNCaP; read-out: IC50 LNCaP
From the text: as §1

[13] = test system: PPC-1 human prostate cancer cell line; test: Cytotoxicity (SRB) assay, PPC-1; format: cell-based; conditions: Homo sapiens, PPC-1, SRB assay, prostate cancer PPC-1; read-out: IC50 PPC-1
From the text: as §1

[14] = Pharmacokinetic study in Sprague-Dawley rats; conditions: rat
[15] = Aqueous solubility, Multiscreen Solubility Filter Plate, PBS pH 7.4
PC-3 cells [16] = test: Cell cycle analysis (PI staining, FACS), PC-3; format: cell-based; conditions: Homo sapiens, read-out: G2M phase arrest EC50
Description: Cell cycle distribution was determined by propidium iodide (PI) staining. Treated cells were washed with PBS and fixed with 70% ice-cold ethanol overnight. Fixed cells were then stained with 20 μg/mL of PI in the presence of RNase A (300 μg/mL) at 37° C. for 30 min. Cell cycle distribution was analyzed by fluorescence-activated cell sorting (FACS) analysis core services at the University of Tennessee Health Science Center, TN.
Flow cytometry was performed to study the effects of the compounds on cell cycle distribution. […] Cellular DNA was stained with 100 μg/mL propidium iodide and 100 μg/mL RNase A in PBS and flow cytometry was performed to determine the cell cycle distribution of the cells.

[17] = test system: T1, tubulin colchicine binding site; test: [3H]-colchicine competition-binding scintillation proximity assay; conditions: SPA, 0.03-100 μM
T1 construct: […]

WM-164 melanoma cells = test: Microtubule imaging (immunofluorescence); format: cell-based, human; conditions: WM-164 cells, 18 h
From the text: Primary antibody for tubulin and fluorescence-labeled secondary antibody were subsequently added to the cells. Cell nuclei were stained by DAPI. Whole Cell Stain Green was also applied to all cells. All images were acquired with an Olympus IX71 inverted fluorescence microscope (Olympus Corp., Tokyo, Japan) with overlays from separate images of tubulin (red), nuclei (blue), and whole cells (green).

[18] = test system: HUVEC (Human Umbilical Vein Endothelial Cells); test: Endothelial cell growth inhibition (SRB); format: cell-based; conditions: HUVEC vs prostate cancer cells
[19] = test system: HUVEC capillary tube formation on Matrigel; test: Capillary formation assay; format: cell-based, human; conditions: at toxic concentration
[20] = test system: confluent HUVEC monolayers; test: Endothelial monolayer permeability assay; conditions: FITC-dextran leakage, 1, 2, 4 h
[21] = read-out: IC50 PC-3, SRB assay, prostate cancer PC-3
[22] = read-out: IC50 ± SEM, PC-3, Table 21, n = 3
[23] = IV, 1h and 2r […], 5Ha and 5Hc 5 mg/kg

## COc1cc(C(=O)c2csc(-c3ccccc3)n2)cc(OC)c1OC [1h, (2-Phenyl-thiazol-4-yl)-(3,4,5-trimethoxy-phenyl)-methanone]
[1]; [21]
  IC50: 29.1 ± 1.1 nM
[1]; read-out: IC50 in PC3, Table 16B
  IC50: 21 nM
[1]; [22]
  IC50: 21 ± 1 nM
Bovine brain tubulin; absorbance 340 nm over 15 min
  inhibition of tubulin polymerization: 90%
Bovine brain tubulin; after 20 min incubation, vs vehicle
  inhibition of tubulin polymerization: 47%
[2]
  competition for tubulin binding sites in words: specifically competed with colchicine binding to tubulin
[3]
  rotarod performance in words: no significant difference
ICR, mouse, in vivo, ip
  dose not causing greater than 10% loss of body weight: up to 30 mg/kg
PC-3 xenograft; PC-3, 5 mg/kg i.p.
  % T/C: 29%
PC-3 xenograft; PC-3, 15 mg/kg i.p.
  % T/C: 4%
PC-3 xenograft
  mice that lost more than 15% body weight: 1 of 8

## COc1cc(C(=O)c2csc(-c3ccc(F)cc3)n2)cc(OC)c1OC [2k]
Bovine brain tubulin; absorbance 340 nm over 15 min
  inhibition of tubulin polymerization: 90%
[4]
  % T/C: 28%
  T-C: 11 days
ICR mice, 4 consecutive days of intraperitoneal dosing
  dose not causing greater than 10% loss of body weight: ≤ 15 mg/kg
[5]
  AUC: 2200 ng·h/mL
PC-3 xenograft; PC-3, 5 mg/kg i.p.
  % T/C: 21%
PC-3 xenograft; PC-3, 5 mg/kg i.p. daily
  tumor volume at day 21: 269 mm^3
PC-3 xenograft; PC-3, 15 mg/kg i.p.
  % T/C: 24%
PC-3 xenograft; PC-3, 15 mg/kg i.p. daily
  tumor volume at day 21: 292 mm^3
PC-3 xenograft
  mice that lost more than 15% body weight: 2 out of 7

## COc1cc(C(=O)c2csc(-c3ccc(O)cc3)n2)cc(OC)c1OC [2l, (2-(4-Hydroxyphenyl)thiazol-4-yl)(3,4,5-trimethoxyphenyl)methanone]
[1]; [21]
  IC50: 87 nM
[1]; [22]
  IC50: 87 ± 5 nM
[6]
  Resistance factor: 0.4
[7]
  IC50: 76 to 116 nM
PC-3 cells [8]
  concentration inducing apoptosis: greater than or equal to 200 nM
In vivo
  AUC: 2600 ng·h/mL
  Vd: 16.5 L/kg
  clearance: 90 mL/min/kg
  half-life: 12.3 h
PC-3 xenograft; PC-3, 50 mg/kg i.p.
  % T/C: 34%
PC-3 xenograft; Prostate (PC-3) xenograft, 50 mg/kg i.p.
  % T/C: 34%

## COc1cc(C(=O)c2csc(-c3ccc(CN)cc3)n2)cc(OC)c1OC.Cl [2r, (2-(4-(Aminomethyl)phenyl)thiazol-4-yl)(3,4,5-trimethoxyphenyl)methanone hydrochloride]
[9]
  IC50: 38 ± 11 nM
[10]
  IC50: 41 ± 13 nM
[11]
  IC50: 25 nM
[1]; [21]
  IC50: 80 nM
[12]
  IC50: 13 nM
[13]
  IC50: 34 nM
[7]
  IC50: 13 to 80 nM
[14]
  F, percent oral bioavailability: 0.2%
[14]; [23]
  CL, systemic clearance: 22 ± 13 mL/min/kg
  Vss, volume of distribution following intravenous dosing: 0.33 ± 0.25 L/kg
[14]; PO, 1h, 5Ha, 5Hc 10 mg/kg, 2r 4 mg/kg
  Cmax, PO: 3794 ± 1580 ng/mL
[15]; HCl salt, PBS
  increase of solubility: over 35 fold
[15]; PBS pH 7.4
  aqueous solubility in PBS: over 35 μg/mL

## COc1cc(-c2nccc3ccc(-c4ccc5[nH]ccc5c4)cc23)cc(OC)c1OC [6a]
[1]; read-out: IC50, PC-3, Table 7
  IC50: 64.4 ± 12.2 nM
PC-3 cells [16]
  EC50: 53.4 nM

## c1cc2ccc(-c3ccc4[nH]ccc4c3)cc2c(-c2ccc3[nH]ccc3c2)n1 [6b, 1,7-Bis-(1H-indol-5-yl)-isoquinoline]
PC-3 cells [16]
  EC50: 91.9 nM

## COc1cc(C(=O)c2c[nH]c(-c3ccc(C)cc3)n2)cc(OC)c1OC [12da, (2-(p-tolyl)-1H-imidazol-4-yl)(3,4,5-trimethoxyphenyl)methanone]
[17]
  colchicine site binding in words: highest binding affinity
WM-164 melanoma cells
  effect on microtubules in words: microtubule fragmentation

## COc1cccc2c1C(=O)c1c(O)c3c(c(O)c1C2=O)C[C@@](O)(C(=O)CO)C[C@@H]3O[C@H]1C[C@H](N)[C@H](O)[C@H](C)O1 [doxorubicin]
[18]
  times more active against endothelial cells than against cancer cells: not specific to endothelial cells
[19]
  capillary construction in words: did not affect the capillary construction
[20]
  permeability of endothelial cell monolayer in words: did not induce any change

## CC(=O)O[C@H]1C(=O)[C@@]2(C)[C@H]([C@H](OC(=O)c3ccccc3)[C@]3(O)C[C@H](OC(=O)[C@H](O)[C@@H](NC(=O)c4ccccc4)c4ccccc4)C(C)=C1C3(C)C)[C@]1(OC(C)=O)CO[C@@H]1C[C@@H]2O [paclitaxel, reference compound]
[17]
  colchicine site binding in words: only a flat line
WM-164 melanoma cells
  effect on microtubules in words: condensation of microtubules
